Source: PMC5761851, “Application of a phenotypic drug discovery strategy to identify biological and chemical starting points for inhibition of TSLP production in lung epithelial cells” (PLoS ONE, 2018)

Columns and labels:
Assay in all cases: kinase selectivity panel
Format in all cases: biochemical
[1] = target: T1, PKBα (Homo sapiens, UniProt P31749); details: read-out: percentage of control activity (POC), PKBα
T1 construct: purchased Eurofins Pharma Discovery Services (KinaseProfiler; Cerep BioPrint panel)
T1 sequence (P31749 whole entry): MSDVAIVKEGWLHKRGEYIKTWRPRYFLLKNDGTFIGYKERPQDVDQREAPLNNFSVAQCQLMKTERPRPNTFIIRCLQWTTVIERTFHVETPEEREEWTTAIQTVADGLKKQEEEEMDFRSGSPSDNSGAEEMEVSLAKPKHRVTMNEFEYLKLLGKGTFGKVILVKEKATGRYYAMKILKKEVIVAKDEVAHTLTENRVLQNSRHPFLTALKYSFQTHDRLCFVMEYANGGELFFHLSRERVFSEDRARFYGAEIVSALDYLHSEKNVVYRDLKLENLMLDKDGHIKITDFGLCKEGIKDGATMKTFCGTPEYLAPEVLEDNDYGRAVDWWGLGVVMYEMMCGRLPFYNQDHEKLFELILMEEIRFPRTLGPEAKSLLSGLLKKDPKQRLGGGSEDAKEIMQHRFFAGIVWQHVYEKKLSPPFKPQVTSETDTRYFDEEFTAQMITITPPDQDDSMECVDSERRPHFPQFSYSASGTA
How it was run: (§1)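 Single-point screen: 10 μM, duplicate, 125-kinase panel; follow-up IC50 from 9-point titration in duplicate for chosen hits.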

[2] = target: T2, CK1δ (Homo sapiens, UniProt P48730); details: read-out: percentage of control activity (POC), CK1δ
T2 construct: purchased Eurofins Pharma Discovery Services (KinaseProfiler; Cerep BioPrint panel)
T2 sequence (P48730 whole entry): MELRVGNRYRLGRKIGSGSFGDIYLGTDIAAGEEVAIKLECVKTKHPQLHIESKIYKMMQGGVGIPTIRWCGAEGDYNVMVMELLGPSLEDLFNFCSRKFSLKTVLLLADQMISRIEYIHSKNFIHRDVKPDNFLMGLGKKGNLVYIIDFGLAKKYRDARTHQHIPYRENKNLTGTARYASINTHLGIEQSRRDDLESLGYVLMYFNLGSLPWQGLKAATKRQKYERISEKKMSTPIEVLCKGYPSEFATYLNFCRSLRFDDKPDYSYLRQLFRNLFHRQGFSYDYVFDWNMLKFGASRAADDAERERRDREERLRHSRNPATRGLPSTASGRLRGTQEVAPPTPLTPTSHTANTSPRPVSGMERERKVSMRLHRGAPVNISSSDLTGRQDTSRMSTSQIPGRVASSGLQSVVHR
How it was run: as §1

[3] = target: T3, PI3K (p110b/p85a) (Homo sapiens, UniProt P42338); details: read-out: percentage of control activity (POC), PI3K (p110b/p85a)
T3 construct: purchased Eurofins Pharma Discovery Services (KinaseProfiler; Cerep BioPrint panel)
How it was run: as §1

[4] = target: T4, CDK2/cyclinA (Homo sapiens, UniProt P24941); details: read-out: percentage of control activity (POC), CDK2/cyclinA
T4 construct: purchased Eurofins Pharma Discovery Services (KinaseProfiler; Cerep BioPrint panel)
How it was run: as §1

[5] = target: T5, DDR2 (Homo sapiens, UniProt Q16832); details: for remaining activity at 10 µM: read-out: percentage of control activity (POC), DDR2
T5 construct: purchased Eurofins Pharma Discovery Services (KinaseProfiler; Cerep BioPrint panel)
T5 sequence (Q16832 22-855): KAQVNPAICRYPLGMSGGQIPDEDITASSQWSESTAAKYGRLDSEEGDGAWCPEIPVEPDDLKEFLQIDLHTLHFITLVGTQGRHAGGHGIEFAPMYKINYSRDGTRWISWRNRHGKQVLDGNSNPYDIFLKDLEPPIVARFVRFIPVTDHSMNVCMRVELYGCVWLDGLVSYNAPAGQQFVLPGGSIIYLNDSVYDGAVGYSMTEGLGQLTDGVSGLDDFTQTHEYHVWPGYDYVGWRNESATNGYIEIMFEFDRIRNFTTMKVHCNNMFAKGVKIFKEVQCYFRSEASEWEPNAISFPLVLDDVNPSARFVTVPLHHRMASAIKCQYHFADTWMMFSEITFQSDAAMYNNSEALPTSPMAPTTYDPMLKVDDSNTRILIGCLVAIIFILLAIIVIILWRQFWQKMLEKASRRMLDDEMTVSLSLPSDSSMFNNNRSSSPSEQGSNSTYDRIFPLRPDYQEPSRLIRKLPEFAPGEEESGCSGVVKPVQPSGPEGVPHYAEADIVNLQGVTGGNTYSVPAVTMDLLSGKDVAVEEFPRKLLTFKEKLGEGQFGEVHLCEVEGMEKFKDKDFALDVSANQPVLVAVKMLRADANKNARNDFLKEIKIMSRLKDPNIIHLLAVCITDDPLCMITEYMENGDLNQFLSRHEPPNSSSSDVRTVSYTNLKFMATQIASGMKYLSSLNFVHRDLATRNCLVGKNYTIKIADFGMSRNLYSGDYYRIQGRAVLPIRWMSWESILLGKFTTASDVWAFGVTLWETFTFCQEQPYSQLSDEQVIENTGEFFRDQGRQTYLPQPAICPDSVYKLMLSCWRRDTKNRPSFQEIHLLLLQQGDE
How it was run: as §1

[6] = target: T6, IRAK4 (Homo sapiens, UniProt Q9NWZ3); details: read-out: percentage of control activity (POC), IRAK4
T6 construct: purchased Eurofins Pharma Discovery Services (KinaseProfiler; Cerep BioPrint panel)
T6 sequence (Q9NWZ3 1-460): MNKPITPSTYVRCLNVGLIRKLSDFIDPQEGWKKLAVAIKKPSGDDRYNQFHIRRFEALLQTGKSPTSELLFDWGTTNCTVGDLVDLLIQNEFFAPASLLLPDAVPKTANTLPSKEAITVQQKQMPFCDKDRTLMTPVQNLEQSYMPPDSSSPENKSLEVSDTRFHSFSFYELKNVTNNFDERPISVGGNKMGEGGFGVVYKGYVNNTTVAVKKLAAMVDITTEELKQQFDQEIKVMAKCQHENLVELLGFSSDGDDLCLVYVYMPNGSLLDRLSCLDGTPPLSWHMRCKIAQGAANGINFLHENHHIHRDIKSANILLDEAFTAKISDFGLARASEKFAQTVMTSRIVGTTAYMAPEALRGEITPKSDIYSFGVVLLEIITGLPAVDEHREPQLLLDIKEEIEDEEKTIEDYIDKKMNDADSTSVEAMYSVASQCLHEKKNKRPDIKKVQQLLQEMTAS
How it was run: as §1

[7] = target: T7, PKCι (Homo sapiens, UniProt P41743); details: read-out: percentage of control activity (POC), PKCι
T7 construct: purchased Eurofins Pharma Discovery Services (KinaseProfiler; Cerep BioPrint panel)
T7 sequence (P41743 1-596): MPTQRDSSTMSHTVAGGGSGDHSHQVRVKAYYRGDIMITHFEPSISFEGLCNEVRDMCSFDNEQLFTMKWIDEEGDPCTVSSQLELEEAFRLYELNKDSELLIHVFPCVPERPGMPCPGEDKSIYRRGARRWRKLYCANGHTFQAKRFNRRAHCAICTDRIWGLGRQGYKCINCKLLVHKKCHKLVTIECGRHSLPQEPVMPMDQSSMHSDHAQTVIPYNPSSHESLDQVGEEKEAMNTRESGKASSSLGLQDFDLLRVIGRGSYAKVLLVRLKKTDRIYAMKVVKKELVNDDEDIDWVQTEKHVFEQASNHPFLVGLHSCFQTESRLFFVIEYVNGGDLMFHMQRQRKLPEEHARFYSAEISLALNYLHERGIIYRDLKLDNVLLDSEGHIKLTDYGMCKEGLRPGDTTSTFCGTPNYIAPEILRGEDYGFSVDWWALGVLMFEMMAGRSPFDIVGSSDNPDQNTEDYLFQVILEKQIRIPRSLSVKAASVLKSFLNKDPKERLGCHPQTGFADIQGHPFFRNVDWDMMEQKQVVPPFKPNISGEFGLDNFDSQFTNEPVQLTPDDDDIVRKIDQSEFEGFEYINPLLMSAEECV
How it was run: as §1

[8] = target: T8, Lyn (Homo sapiens, UniProt P07948); details: read-out: percentage of control activity (POC), Lyn
T8 construct: purchased Eurofins Pharma Discovery Services (KinaseProfiler; Cerep BioPrint panel)
T8 sequence (P07948 whole entry): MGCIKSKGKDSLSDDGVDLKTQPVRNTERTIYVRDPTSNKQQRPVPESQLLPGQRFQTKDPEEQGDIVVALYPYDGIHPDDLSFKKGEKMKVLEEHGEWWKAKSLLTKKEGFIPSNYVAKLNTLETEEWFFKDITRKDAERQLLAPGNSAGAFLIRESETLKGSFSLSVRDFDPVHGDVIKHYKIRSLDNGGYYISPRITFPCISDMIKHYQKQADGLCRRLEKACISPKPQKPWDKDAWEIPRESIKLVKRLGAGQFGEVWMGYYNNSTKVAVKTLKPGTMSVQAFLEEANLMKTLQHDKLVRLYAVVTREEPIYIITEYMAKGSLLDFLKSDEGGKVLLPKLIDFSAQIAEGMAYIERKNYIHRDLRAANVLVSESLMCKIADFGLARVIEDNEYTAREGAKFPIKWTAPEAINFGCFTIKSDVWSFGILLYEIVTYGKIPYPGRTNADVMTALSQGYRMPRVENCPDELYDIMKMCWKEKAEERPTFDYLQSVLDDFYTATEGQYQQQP
How it was run: as §1

[9] = target: T9, CaMKI (Homo sapiens, UniProt Q14012); details: read-out: percentage of control activity (POC), CaMKI
T9 construct: purchased Eurofins Pharma Discovery Services (KinaseProfiler; Cerep BioPrint panel)
T9 sequence (Q14012 whole entry): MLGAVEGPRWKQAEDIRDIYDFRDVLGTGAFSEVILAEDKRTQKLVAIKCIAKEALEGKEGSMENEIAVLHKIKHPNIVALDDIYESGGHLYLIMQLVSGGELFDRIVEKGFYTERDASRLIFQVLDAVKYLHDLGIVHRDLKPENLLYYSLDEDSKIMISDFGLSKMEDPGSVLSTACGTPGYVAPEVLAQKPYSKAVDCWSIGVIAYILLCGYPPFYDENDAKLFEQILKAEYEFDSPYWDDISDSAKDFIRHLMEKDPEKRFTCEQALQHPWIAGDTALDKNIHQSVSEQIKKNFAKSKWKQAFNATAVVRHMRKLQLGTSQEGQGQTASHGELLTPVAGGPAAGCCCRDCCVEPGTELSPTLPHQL
How it was run: as §1

[10] = target: T10, PI3K (p110d/p85a) (Homo sapiens, UniProt O00329); details: for remaining activity at 10 µM: read-out: percentage of control activity (POC), PI3K (p110d/p85a)
T10 construct: Eurofins Pharma Discovery Services (contract assay service)
T10 sequence (O00329 whole entry): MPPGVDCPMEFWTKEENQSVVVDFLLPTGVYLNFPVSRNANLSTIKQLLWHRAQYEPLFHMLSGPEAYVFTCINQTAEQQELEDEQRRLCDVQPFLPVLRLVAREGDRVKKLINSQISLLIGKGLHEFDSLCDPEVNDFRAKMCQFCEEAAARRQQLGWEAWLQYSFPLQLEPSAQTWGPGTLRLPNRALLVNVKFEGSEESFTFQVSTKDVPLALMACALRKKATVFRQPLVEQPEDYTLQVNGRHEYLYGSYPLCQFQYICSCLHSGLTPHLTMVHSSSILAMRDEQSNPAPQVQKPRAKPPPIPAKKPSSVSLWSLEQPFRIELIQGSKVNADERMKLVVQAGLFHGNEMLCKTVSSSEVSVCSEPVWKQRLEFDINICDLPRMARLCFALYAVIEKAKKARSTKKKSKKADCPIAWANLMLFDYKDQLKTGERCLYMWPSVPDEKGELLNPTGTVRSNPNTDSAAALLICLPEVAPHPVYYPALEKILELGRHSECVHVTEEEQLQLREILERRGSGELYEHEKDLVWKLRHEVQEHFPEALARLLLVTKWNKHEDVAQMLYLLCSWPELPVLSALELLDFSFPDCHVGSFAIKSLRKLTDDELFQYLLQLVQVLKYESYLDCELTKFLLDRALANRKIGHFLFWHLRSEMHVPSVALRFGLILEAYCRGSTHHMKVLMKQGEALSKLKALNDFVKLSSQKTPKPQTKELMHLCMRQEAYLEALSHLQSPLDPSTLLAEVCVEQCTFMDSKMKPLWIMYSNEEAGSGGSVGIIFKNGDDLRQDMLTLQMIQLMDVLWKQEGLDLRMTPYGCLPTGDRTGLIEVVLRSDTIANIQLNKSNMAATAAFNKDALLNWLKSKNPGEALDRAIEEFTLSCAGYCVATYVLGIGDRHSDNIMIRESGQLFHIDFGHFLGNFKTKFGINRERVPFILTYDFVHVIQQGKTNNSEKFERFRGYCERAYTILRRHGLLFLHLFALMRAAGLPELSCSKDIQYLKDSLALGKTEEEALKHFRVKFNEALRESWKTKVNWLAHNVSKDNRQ
T10 sequence (P27986 whole entry partner): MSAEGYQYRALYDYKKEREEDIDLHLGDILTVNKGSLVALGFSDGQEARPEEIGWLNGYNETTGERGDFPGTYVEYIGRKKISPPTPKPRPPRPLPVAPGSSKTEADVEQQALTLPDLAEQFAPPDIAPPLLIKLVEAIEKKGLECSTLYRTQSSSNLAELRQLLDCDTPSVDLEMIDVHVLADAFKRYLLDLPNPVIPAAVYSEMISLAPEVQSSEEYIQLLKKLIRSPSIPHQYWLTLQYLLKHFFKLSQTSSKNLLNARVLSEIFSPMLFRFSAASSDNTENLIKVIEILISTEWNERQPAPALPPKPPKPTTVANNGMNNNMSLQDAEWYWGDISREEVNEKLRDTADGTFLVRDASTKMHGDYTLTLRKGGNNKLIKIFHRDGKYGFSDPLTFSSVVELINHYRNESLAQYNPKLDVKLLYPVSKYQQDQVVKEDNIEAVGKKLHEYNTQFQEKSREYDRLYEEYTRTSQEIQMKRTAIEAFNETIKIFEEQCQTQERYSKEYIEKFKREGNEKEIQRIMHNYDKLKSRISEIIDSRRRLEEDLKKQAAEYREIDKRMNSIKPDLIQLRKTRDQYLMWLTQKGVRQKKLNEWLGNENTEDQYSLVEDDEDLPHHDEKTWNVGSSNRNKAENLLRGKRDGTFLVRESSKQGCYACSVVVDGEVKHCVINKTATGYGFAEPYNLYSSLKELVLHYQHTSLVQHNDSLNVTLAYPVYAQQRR
How it was run: as §1

[11] = target: T11, Flt4 (Homo sapiens, UniProt P35916); details: for remaining activity at 10 µM: read-out: percentage of control activity (POC), Flt4
T11 construct: Eurofins Pharma Discovery Services (contract assay service)
T11 sequence (P35916 25-1363, species assumed): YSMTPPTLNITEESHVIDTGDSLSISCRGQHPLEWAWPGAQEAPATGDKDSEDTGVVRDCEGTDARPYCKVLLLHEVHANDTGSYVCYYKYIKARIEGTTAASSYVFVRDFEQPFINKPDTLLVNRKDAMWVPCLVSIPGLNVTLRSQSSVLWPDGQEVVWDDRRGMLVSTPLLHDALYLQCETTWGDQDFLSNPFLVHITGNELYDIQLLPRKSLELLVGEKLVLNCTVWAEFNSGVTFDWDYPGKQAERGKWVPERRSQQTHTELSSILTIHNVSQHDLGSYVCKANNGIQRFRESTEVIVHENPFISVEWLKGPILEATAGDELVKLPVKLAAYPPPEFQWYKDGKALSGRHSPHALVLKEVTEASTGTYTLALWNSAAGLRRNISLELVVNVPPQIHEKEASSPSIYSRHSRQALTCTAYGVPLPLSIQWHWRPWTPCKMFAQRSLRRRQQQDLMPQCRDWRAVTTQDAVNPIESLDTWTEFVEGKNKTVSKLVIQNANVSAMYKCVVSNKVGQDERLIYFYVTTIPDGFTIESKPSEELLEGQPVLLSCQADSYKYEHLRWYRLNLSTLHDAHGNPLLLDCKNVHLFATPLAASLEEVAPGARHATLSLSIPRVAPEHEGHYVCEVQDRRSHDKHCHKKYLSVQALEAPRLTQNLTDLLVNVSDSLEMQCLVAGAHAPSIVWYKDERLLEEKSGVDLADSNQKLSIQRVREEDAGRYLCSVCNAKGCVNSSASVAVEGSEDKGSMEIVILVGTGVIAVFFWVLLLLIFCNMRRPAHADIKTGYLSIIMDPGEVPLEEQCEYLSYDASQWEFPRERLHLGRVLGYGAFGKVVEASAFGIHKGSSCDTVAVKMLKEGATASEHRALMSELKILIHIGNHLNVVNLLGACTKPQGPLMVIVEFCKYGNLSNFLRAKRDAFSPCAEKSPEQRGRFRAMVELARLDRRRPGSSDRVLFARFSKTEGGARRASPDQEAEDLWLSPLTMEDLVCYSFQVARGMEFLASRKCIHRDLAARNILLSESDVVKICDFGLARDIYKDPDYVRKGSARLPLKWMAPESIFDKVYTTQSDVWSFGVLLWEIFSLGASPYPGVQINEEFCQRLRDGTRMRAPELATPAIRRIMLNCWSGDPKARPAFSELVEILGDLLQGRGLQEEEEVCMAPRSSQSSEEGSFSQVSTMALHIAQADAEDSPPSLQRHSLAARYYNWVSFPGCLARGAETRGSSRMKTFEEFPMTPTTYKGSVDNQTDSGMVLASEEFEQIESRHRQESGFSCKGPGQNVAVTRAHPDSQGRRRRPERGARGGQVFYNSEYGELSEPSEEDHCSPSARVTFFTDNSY
How it was run: as §1

Compound	remaining activity at 10 µM [1] [%]	remaining activity at 10 µM [2] [%]	remaining activity at 10 µM [3] [%]	remaining activity at 10 µM [4] [%]	remaining activity at 10 µM [5] [%]	remaining activity at 10 µM [6] [%]	remaining activity at 10 µM [7] [%]	remaining activity at 10 µM [8] [%]	remaining activity at 10 µM [9] [%]	remaining activity at 10 µM ([10]; 10 μM) [%]	remaining activity at 10 µM ([11]; 10 μM) [%]	inhibition at 10 µM [5] [%]	inhibition at 10 µM ([10]; 10 μM, read-out: inhibition of PI3K (p110δ/p85α)) [%]	IC50 ([10]; biochemical dose response, duplicate, read-out: Inhibition of indicated activity (IC50, μM): PI3K (p110δ/p85α)) [µM]	inhibition at 10 µM ([11]; 10 μM, read-out: inhibition of Ftl4) [%]	IC50 ([11]; biochemical dose response, duplicate, read-out: Inhibition of indicated activity (IC50, μM): Ftl4) [µM]
CC(C)(C)N1CCC(c2cc(-c3ccc(F)cc3Cl)c3cc[n+]([O-])c(-c4c(Cl)cccc4Cl)c3n2)CC1 [compound 2]	95	110	92	105	94	95	103	104	94	93	108					
Cc1ccc(C(=O)NCC2CC2)cc1-c1ccc2c(c1)NC(=O)C21CCCC1 [compound 3]	91	100	86	101	71	92	100	101	95	90	78					
Cn1cc(-c2cccc(-c3nc(C(=O)NC4C5CC6CC4CC(O)(C6)C5)c(N)nc3N)c2)cn1 (stereo not shown) [compound 4]	96	50	71	91	47	82	87	66	87	21	20	53	79	0.233	80	3.13
CS(=O)(=O)N1CCN(c2ccc(Nc3ncc(C(N)=O)c(NC4CC4)n3)cc2)CC1 [compound 5]	86	23	93	78	28	13	83	5	28	90	0					
COc1c(NC(=O)c2ccc(C)c(-c3nnc4c(NCC(C)(C)C)nccn34)c2)cc(C(C)(C)C)cc1NS(C)(=O)=O [compound 7, reference compound]	99	111	87	105	3	118	103	66	108	90	88	97				
